Laboratory results as given in patent US9023814B2, “Glycomimetic compounds as anti-infectious against pathogens lectins” (priority 2010, dated 2015).

How the values were obtained:
LecA [1] = target: T1, LecA (Pseudomonas aeruginosa, UniProt Q05097); assay: Inhibition of Hemagglutination (HIA), LecA-induced agglutination of rabbit erythrocytes; assay type: cell-based; conditions: LecA 6 μg/mL, 25° C.
Method: Inhibition of Hemagglutination (IHA) (or Hemagglutination Inhibition Assays (HIA)).
The LecA lectin agglutinates red blood cells since they are covered by glycoconjugates. The glycomimetics inhibit this agglutination.
For each compound the minimum concentration able to perform inhibition has been evaluated. The method is not very quantitative but mimics natural system.
More particularly, hemagglutination inhibition assays were performed in U-shaped 96-well microtitre plates. Rabbit erythrocytes were bought from Biomerieux and used without further washing. The erythrocytes were diluted to a 4% solution in NaCl (150 mM). Lectin solutions of 2 mg/mL were prepared in Tris/HCl 20 mM, NaCl 100 mM and CaCl2 100 μM. The hemagglutination unit (HU) was first obtained by the addition of 25 μL of the 4% erythrocyte solution to 25 μL aliquots of sequential (two-fold) lectin dilutions. The mixture was incubated at 25° C. for 60 minutes. The HU was measured as the minimum lectin concentration required to […] hemagglutination. For the following lectin-inhibition assays, lectin concentrations of four times that of the hemagglutination unit were used, i.e. a concentration of 6 μg/mL for LecA. Subsequent assays were then carried out by the addition of 12.5 μL lectin solution (at the required concentration) to 25 μL of sequential dilutions of glycoclusters, monomer molecules and controls. These solutions were then incubated at 25° C. for 2 h then 12.5 μL of 4% erythrocyte solution was added followed by an additional incubation at 25° C. for 30 minutes. The minimum inhibitory concentration for each molecule was determined by simple eye detection.
Compounds 5, 10, 14, 19, 21, 23, 25, 27, 29 and 31 were evaluated towards LecA according to Method 1.

LecA [2] = target: T1, LecA; assay: Enzyme-Linked Lectin Assay (ELLA), biotinylated LecA binding to polymeric galactose
Method: Enzyme-Linked Lectin Assay (ELLA) Experiments 96-well plates are covered with polymer presenting galactose (which is the monosaccharide that is bound by LecA). The lectin labelled with biotin is added in presence of competing glycomimetics. IC50 can be measured.
More particularly, ELLA experiments were conducted using 96-well microtitre plates (Nunc Maxisorb) coated with polymeric β-D-galactose (5 μg/mL; Lectinity Holding, Inc., Moscow) diluted in carbonate buffer, pH 9.6 (100 μL) for 1 h at 37° C. After blocking at 37° C. for 1 h with 100 μL per well of 3% (w/v) BSA in PBS, plates were incubated at 37° C. for 1 h with 100 μL of biotinylated LecA at 0.1 μg/mL in the presence of serial dilutions of inhibitors. After washing with T-PBS (PBS containing 0.05% Tween), 100 μL of streptavidinperoxidase conjugate (dilution 1:10000; Boehringer-Mannheim) was added and left for 1 h at 37° C. The color was developed using 100 μL per well of 0.05 M phosphate/citrate buffer containing O-phenylenediamine dihydrochloride (0.4 mg/mL) and urea hydrogen peroxide (0.4 mg/mL) (Sigma-Aldrich). The reaction was stopped by the addition of 50 μL of 30% H2SO4. Absorbance was read at 490 nm using a microtitre plate reader (Bio-Rad; model 680).

LecA [3] = target: T1, LecA; assay: biochemical; assay type: binding
Method: Surface Plasmon Resonance (SPR).
Equivalent method, but performed in miniaturized channel on a galactose-containing chips in a more sophisticated apparatus (Biacore 3000) that allows for a precise determination of the IC50.
More particularly, SPR inhibition experiments were performed on a Biacore 3000 instrument at 25° C. Measurements were carried out on 2 channels with 2 immobilised sugars: α-L-fucose (channel 1), α-D-galactose (channel 2). Immobilization of sugars was performed at 25° C. using running buffer (HBS) at 5 μL/min. Immobilization on each channel (CM5 Chip) was performed independently as follows. First, channel was activated by injecting a fresh mixture of EDC/NHS (35 μL, 420 s). Then, a solution of strepatavidin (100 μg/mL in Na acetate pH 5 buffer) was injected (50 μL, 600 s). Remaining reactive species were quenched by injecting ethanolamine (1M, 35 μL, 420 s). Finally a solution of the desired biotinylated-polyacrylamide-sugar (Lectinity, 200 μg/mL) was coated onto the surface (50 μL, 600 s) through streptavidin-biotin interaction. This procedure led to 804 RU (fucoside) and 796 RU (galactoside) of immobilized sugars on channel 1 and 2 respectively. Inhibition experiments were performed with the galactosylated channel 2 and plots represent subtracted data (channel 2-channel 1).
LecA was injected using running buffer consisting of HEPES 10 mM, NaCl 150 mM, CaCl2 10 mM, Tween P20 0.005%, pH 7.4. Inhibition studies consisted in the injection (150 μL, 10 μL/min, dissociation: 120 s) of incubated (>1 h, r.t.) mixtures of LecA (5 μM) and various concentrations of inhibitor (2-fold cascade dilutions). For each inhibition assay, LecA (5 μM) without inhibitor was injected to observe the full adhesion of the lectin onto the sugar-coated surface (0% inhibition). The CM5 chip was fully regenerated by successive injections of D-Galactose (2×30 μL, 100 mM in running buffer).
Binding was measured as RU over time after blank subtraction, and data were then evaluated using the BIAevaluation Software, version 4.1. For IC50 evaluation, the response (Req-fitted) was considered as the amount of lectin bound to the sugar surface at equilibrium in the presence of a defined concentration of inhibitor. Inhibition curves were obtained by plotting the percentage of inhibition against the inhibitor concentration (on a logarithmic scale) by using Origin 7.0 software (OriginLab Corp.) and IC50 values were extracted from sigmoidal fit of the inhibition curve.

LecA [4] = target: T1, LecA; assay: biochemical; assay type: binding; remark: listed apart in the source
Method: Isothermal Titration Microcalorimetry (ITC).
The method allows for a direct measurement of the affinity between the glycomimetics and the LecA lectin. The dissociation constant is measured.
More particularly, recombinant lyophilized LecA was dissolved in buffer (0.1 M TrisHCl, 6 μM CaCl2, pH 7.5) and degassed (see Supp. Info. for concentration details). Protein concentration was checked by measurement of optical density using a theoretical molar extinction coefficient of 28000. Carbohydrate ligands were dissolved directly into the same buffer, degassed, and placed in the injection syringe. ITC was performed with a VP-ITC MicroCalorimeter from MicroCal Incorporated. PA-IL was placed into the 1.4478-mL sample cell, at 25° C. Titration was performed with 10-μL injections of carbohydrate ligands every 300 s. Data were fitted with MicroCal Origin 7 software, according to standard procedures. Fitted data yielded the stoichiometry (n), the association constant (Ka) and the enthalpy of binding (ΔH).
Other thermodynamic parameters (i.e. changes in free energy, ΔG, and entropy, ΔS) were calculated from the equation: ΔG=ΔH TΔS=−RT Inka where T is the absolute temperature and R=8.314 J·mol^−1·K^−1. Two or three independent titrations were performed for each ligand tested.

P. aeruginosa = assay: Mice model of lung infection, alveolar capillary barrier permeability (125I-albumin); assay type: in vivo; conditions: co-instillation into lungs with P. aeruginosa, 6 h after infection
Method: Mice were briefly anesthetized with inhaled sevoflurane. For each mouse, 50 l of a bacterial inoculum of 5×10^8 CFU/ml was instilled into the lungs through a gavage inserted into trachea via the oropharynx. The alveolar capillary barrier permeability was evaluated by measuring residual ^125I-albumin instilled intratracheally as an alveolar protein tracer in the lungs and its leakage and accumulation in the plasma aftert 6 h after infection. The intratracheal instillate was a mixture of 1 μCi of ^125I-labeled albumin and 5% bovine albumin together with the P. aeruginosa inoculate and different monosaccharides or glycocompounds. The total radioactivity in the instillate was measured. Fifty microliters of instillate was inoculated into the lungs of each anesthetized mouse. […] The blood was collected by carotid arterial puncture, and a sternotomy was performed to harvest and measure the radioactivity in the lungs, trachea, and stomach. The quantity of 125l-albumin that leaked into the circulation was calculated by multiplying the activity in a blood sample by the volume of blood.
Compound 14 has been compared with two monosaccharides: glucose and galactose, in animal models assays. […] For this, labelled albumin was […] was estimated. […]

T1 sequence (Q05097 whole entry): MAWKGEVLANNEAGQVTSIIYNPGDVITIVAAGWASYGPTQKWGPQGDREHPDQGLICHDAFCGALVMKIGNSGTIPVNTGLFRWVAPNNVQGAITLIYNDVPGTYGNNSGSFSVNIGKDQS

O=C(Cn1cc(CO)nn1)Nc1ccc(O[C@@H]2O[C@H](CO)[C@H](O)[C@H](O)[C@H]2O)cc1 [Comp. 14, 4-[(1,2,3-Triazol-4-hydroxymethyl-1-yl)-acetamido]phenyl β-D-galactopyranoside]
inhibiting concentrations of lectin-induced red cells agglutination (minimum inhibitory concentration) (LecA [1]): 250 µM
IC50 (LecA [2]): 46 µM
IC50 (LecA [3]): 2.6 µM
Kd (LecA [4]): 5.8 µM
reduction of lung damages (alveolar barrier permeability) versus bacteria without sugar (P. aeruginosa): approximately 50%
